Test results from the Deep4Chem optical property database.
Blank lines part the entries; values can stand above or below the compound they belong to.

Experiment: photoluminescence quantum yield (fraction); solvent given as SMILES

photoluminescence quantum yield (in ClC(Cl)Cl): 0.39
SMILES: CCCCCCCCn1c(=O)c2cc3cc4cc5c(=O)n(CCCCCCCC)c(=O)c5cc4c(C#Cc4ccc(N(c5ccccc5)c5ccccc5)cc4)c3cc2c1=O

photoluminescence quantum yield (in C1CCCCC1): 0.075 | photoluminescence quantum yield (in CC#N): 0.0075 | photoluminescence quantum yield (in CCO): 0.00027 | photoluminescence quantum yield (in c1ccccc1): 0.073
SMILES: CN(C)c1cccc2c1-c1ccccc1C2=O

photoluminescence quantum yield (in CC(C)O): 0.13
SMILES: CCN1C(=CC2=C([O-])C(=Cc3sc4ccccc4[n+]3CC)C2=O)Sc2ccccc21

SMILES: N#Cc1c(-n2c3ccc(Br)cc3c3cc(Br)ccc32)c(-n2c3ccc(Br)cc3c3cc(Br)ccc32)c(C#N)c(-n2c3ccc(Br)cc3c3cc(Br)ccc32)c1-n1c2ccc(Br)cc2c2cc(Br)ccc21
photoluminescence quantum yield (in Cc1ccccc1): 0.45

photoluminescence quantum yield (in CS(C)=O): 0.0094
SMILES: COC(=O)[C@@H]1C(=O)Oc2ccccc2[C@H]1c1c[nH]c2ccccc12

photoluminescence quantum yield (in ClCCl): 0.31
SMILES: CCCCCCNC(=O)c1sc(-c2ccc(-c3cc(-c4ccc(C(C)(C)C)cc4)c(C(=O)NCCCCCC)s3)s2)cc1-c1ccc(C(C)(C)C)cc1

photoluminescence quantum yield (in CC#N): 0.28
SMILES: COc1ccc(/C=C/c2ccc(-c3ccc(C)cn3)nc2)cc1

photoluminescence quantum yield (in ClC(Cl)Cl): 0.688
SMILES: Cc1cc(C2=Cc3cccc[n+]3[B-](F)(F)O2)ccc1N(C)C

photoluminescence quantum yield (in CC#N): 0.009
SMILES: C[C@@]12SC(Cl)=CC1=c1nc(-c3ccc(Cl)cc3)[nH]c1=C1C=C(Cl)S[C@]12C

photoluminescence quantum yield (in C1CCOC1): 0.0031 | photoluminescence quantum yield (in CC#N): 0.0035 | photoluminescence quantum yield (in CCCCO): 0.0007 | photoluminescence quantum yield (in CO): 0.0037 | photoluminescence quantum yield (in CS(C)=O): 0.0022
SMILES: CC(=O)Nc1ccc(O)cc1

SMILES: CCCCN(CCCC)c1ccc(/C=C/c2ccc(-c3ccc(/C=C/c4ccc(N(CCCC)CCCC)cc4)cc3)cc2)cc1
photoluminescence quantum yield (in CS(C)=O): 0.89 | photoluminescence quantum yield (in Cc1ccccc1): 0.81

photoluminescence quantum yield (in ClCCl): 0.0129
SMILES: c1ccc(-c2nc(-c3ccc(N4c5ccccc5Sc5ccccc54)cc3)nn2-c2ccc(N3c4ccccc4Sc4ccccc43)cc2)nc1

photoluminescence quantum yield (in C1CCOC1): 0.07 | photoluminescence quantum yield (in CC#N): 0.02 | photoluminescence quantum yield (in CCCCCC): 0.41
SMILES: CC1=N/C(=C\c2ccc(C#N)c(N(C)C)c2)C(=O)N1C

photoluminescence quantum yield (in CC#N): 0.043
SMILES: COC(=O)C12N=N[C@](C(=O)OC)(C3C4CCC(C4)C31)[C@@]1(C)C[C@@H]21 (some centres undefined)

photoluminescence quantum yield (in ClCCl): 0.01
SMILES: CCOC(=O)COc1ccc(/C=C/C2=C3C(C)=CC(/C=C/c4ccc(OCC(=O)OCC)cc4)=[N+]3[B-](F)(F)n3c2c2ccccc2c3-c2[nH]c(C)cc2C)cc1

photoluminescence quantum yield (in C1CCOC1): 0.79
SMILES: CCOC(=O)c1ccc(C2=CC3=c4cc(-c5ccc(C(=O)OCC)cc5)c5nc(C(F)(F)C(F)(F)C(F)(F)F)nc6c(-c7ccc(C(=O)OCC)cc7)cc(c4c65)C4=CC(c5ccc(C(=O)OCC)cc5)=C5N=C(C(F)(F)C(F)(F)C(F)(F)F)N=C2C5C43)cc1 (centres undefined)

SMILES: COc1ccc(-c2cc3c(o2)=CC2=C(C(F)(F)F)c4cc5oc(-c6ccc(OC)cc6)cc5n4[B-](F)(F)[N+]=32)cc1
photoluminescence quantum yield (in C1CCOC1): 0.49 | photoluminescence quantum yield (in CC#N): 0.45 | photoluminescence quantum yield (in CCO): 0.37 | photoluminescence quantum yield (in CO): 0.32 | photoluminescence quantum yield (in Cc1ccccc1): 0.58 | photoluminescence quantum yield (in ClC(Cl)Cl): 0.56

photoluminescence quantum yield (in C1CCOC1): 0.19 | photoluminescence quantum yield (in CS(C)=O): 0.17 | photoluminescence quantum yield (in ClCCl): 0.24
SMILES: COCCOCCOCCOc1ccc(/C=C/C2=[N+]3C(=C(c4cc(OC)cc(OC)c4)c4c(C)c(I)c(/C=C/c5ccc(OCCOCCOCCOC)cc5)n4[B-]3(F)F)C(C)=C2I)cc1

photoluminescence quantum yield (in CC#N): 0.25 | photoluminescence quantum yield (in CCCCCC): 0.37
SMILES: C(=C\c1cccnc1)/c1ccc(Nc2ccccc2)cc1

SMILES: CCCCOC(=O)c1cc(Cl)c2c3c(Cl)cc4c5c(cc(Cl)c(c6c(Oc7ccc(C(=O)OC)cc7)cc(C(=O)OCCCC)c1c26)c53)C(=O)N(c1c(C(C)C)cccc1C(C)C)C4=O
photoluminescence quantum yield (in Cc1ccccc1): 0.92

SMILES: Cc1nnc(-c2cc(-n3c4ccccc4c4ccccc43)c(-n3c4ccccc4c4ccccc43)cc2-c2nnc(C)o2)o1
photoluminescence quantum yield (in Cc1ccccc1): 0.287

photoluminescence quantum yield (in ClCCl): 0.05
SMILES: F[B-]1(F)n2c(Cl)c(Cl)c(Br)c2C(Oc2ccccc2)=C2C(Br)=C(Cl)C(Cl)=[N+]21

photoluminescence quantum yield (in ClCCl): 0.09
SMILES: COc1ccc(-c2c3cc4ccccc4cc3c(-c3ccc(OC)cc3)c3cc4ccccc4cc23)cc1

photoluminescence quantum yield (in ClCCl): 0.73
SMILES: CCCCCCn1c2ccccc2c2cc(-c3ccc(-c4cc(-c5ccccn5)nc(-c5ccccn5)c4)cc3)ccc21

SMILES: CN(C)c1ccc(/C=C/C=C2\CC/C(=C\c3ccc(N(C)C)cc3)C2=O)cc1
photoluminescence quantum yield (in C1CCOC1): 0.16 | photoluminescence quantum yield (in CC#N): 0.29 | photoluminescence quantum yield (in CC(C)=O): 0.31 | photoluminescence quantum yield (in CC(C)O): 0.33 | photoluminescence quantum yield (in CCCCCC): 0.007 | photoluminescence quantum yield (in CCCCO): 0.36 | photoluminescence quantum yield (in CCCCOC(C)=O): 0.16 | photoluminescence quantum yield (in CCCO): 0.34 | photoluminescence quantum yield (in CCO): 0.23 | photoluminescence quantum yield (in CCOC(=O)c1ccccc1): 0.24 | photoluminescence quantum yield (in CCOC(C)=O): 0.2 | photoluminescence quantum yield (in CCOCC): 0.073 | photoluminescence quantum yield (in CN(C)C=O): 0.36 | photoluminescence quantum yield (in CO): 0.11 | photoluminescence quantum yield (in CS(C)=O): 0.4 | photoluminescence quantum yield (in Cc1ccccc1): 0.11 | photoluminescence quantum yield (in ClC(Cl)(Cl)Cl): 0.068 | photoluminescence quantum yield (in ClC(Cl)Cl): 0.27 | photoluminescence quantum yield (in ClCCl): 0.36 | photoluminescence quantum yield (in Clc1ccccc1Cl): 0.24 | photoluminescence quantum yield (in S=C=S): 0.13 | photoluminescence quantum yield (in c1ccccc1): 0.13 | photoluminescence quantum yield (in c1ccncc1): 0.38

photoluminescence quantum yield (in CCCCCCCCO): 0.68 | photoluminescence quantum yield (in CCCCCCO): 0.66 | photoluminescence quantum yield (in CCCCO): 0.61 | photoluminescence quantum yield (in CCCO): 0.62 | photoluminescence quantum yield (in CCO): 0.41 | photoluminescence quantum yield (in CO): 0.26 | photoluminescence quantum yield (in O): 0.041
SMILES: CCN(CC)c1ccc2c(C)cc(=O)oc2c1

photoluminescence quantum yield (in C1CCOC1): 0.42
SMILES: COc1cc2c(cc1-c1ccncc1)Cc1c3c(c4c(c1-2)-c1cc(OC)c(-c2ccncc2)cc1C4)C(=O)N(CCC(C)C)C3=O

photoluminescence quantum yield (in ClC(Cl)Cl): 0.03
SMILES: CCOC(=O)/C(C)=C/C1=C(c2ccc(C)cc2)C2=Nc3c(-c4ccc(C)cc4)c(Br)c(-c4ccc(C)cc4)n3[B-](F)(F)[N+]2=C1c1ccc(C)cc1

SMILES: Fc1c(F)c(-n2c3ccccc3c3ccccc32)c(F)c(-n2c3ccccc3c3ccccc32)c1-c1nnc(-c2ccccc2)o1
photoluminescence quantum yield (in Cc1ccccc1): 0.08

photoluminescence quantum yield (in ClC(Cl)Cl): 0.73
SMILES: Cc1ccccc1CN(Cc1ccccc1C)c1nc(C#N)c(N(Cc2ccccc2C)Cc2ccccc2C)nc1C#N

SMILES: COc1ccc(C2=[N+]3C(=Nc4c5c6ccccc6c6ccc(C(C)(C)C)cc6c5c(-c5ccc(OC)cc5)n4[B-]3(F)F)c3c2c2cc(C(C)(C)C)ccc2c2ccccc32)cc1
photoluminescence quantum yield (in Cc1ccccc1): 0.32

photoluminescence quantum yield (in C1CCCCC1): 0.01
SMILES: Cc1ccccc1-c1ccccc1C

SMILES: CCC1=C(C)C2=Cc3c4ccccc4c4n3[B-](c3ccncc3)(Oc3ccccc3-4)[N+]2=C1C (centres undefined)
photoluminescence quantum yield (in CC#N): 0.73 | photoluminescence quantum yield (in CCCCCC): 0.78 | photoluminescence quantum yield (in Cc1ccccc1): 0.7 | photoluminescence quantum yield (in ClCCl): 0.7

SMILES: O=C1NC(=O)c2c1c1c3ccccc3[nH]c1c1[nH]c3ccccc3c21
photoluminescence quantum yield (in C1CCOC1): 0.44 | photoluminescence quantum yield (in CC#N): 0.33 | photoluminescence quantum yield (in CC(C)OC(C)C): 0.25 | photoluminescence quantum yield (in CCCCOCCCC): 0.28 | photoluminescence quantum yield (in CCO): 0.26 | photoluminescence quantum yield (in CCOC(C)=O): 0.29 | photoluminescence quantum yield (in CN(C)C=O): 0.25 | photoluminescence quantum yield (in ClCCl): 0.18

photoluminescence quantum yield (in ClCCl): 0.65
SMILES: CN(C)c1ccc(/C=C/c2cnc(-c3ccncc3)o2)cc1

photoluminescence quantum yield (in CC#N): 0.004
SMILES: c1cc2c3c(cccc3c1)C(N1CCOCCOCCOCCOCC1)=N2

SMILES: O=c1c2ccc(-c3ccc(N(c4ccccc4)c4ccccc4)cc3)cc2sc2cc(-c3ccc(N(c4ccccc4)c4ccccc4)cc3)ccc12
photoluminescence quantum yield (in c1ccc2c(c1)c1ccccc1n2-c1ccc(-c2ccc(-n3c4ccccc4c4ccccc43)cc2)cc1): 0.35

photoluminescence quantum yield (in ClCCl): 0.26
SMILES: COc1ccc(-c2cnc3cccc(-c4ccccc4)n23)cc1
